Laboratory results published in BindingDB's records for patent US20240158406 (Chengdu Baiyu Pharmaceutical Co., 2024).

Target: T1, Protein mono-ADP-ribosyltransferase TIPARP (Homo sapiens, UniProt Q7Z3E1)
T1 sequence (Q7Z3E1 whole entry): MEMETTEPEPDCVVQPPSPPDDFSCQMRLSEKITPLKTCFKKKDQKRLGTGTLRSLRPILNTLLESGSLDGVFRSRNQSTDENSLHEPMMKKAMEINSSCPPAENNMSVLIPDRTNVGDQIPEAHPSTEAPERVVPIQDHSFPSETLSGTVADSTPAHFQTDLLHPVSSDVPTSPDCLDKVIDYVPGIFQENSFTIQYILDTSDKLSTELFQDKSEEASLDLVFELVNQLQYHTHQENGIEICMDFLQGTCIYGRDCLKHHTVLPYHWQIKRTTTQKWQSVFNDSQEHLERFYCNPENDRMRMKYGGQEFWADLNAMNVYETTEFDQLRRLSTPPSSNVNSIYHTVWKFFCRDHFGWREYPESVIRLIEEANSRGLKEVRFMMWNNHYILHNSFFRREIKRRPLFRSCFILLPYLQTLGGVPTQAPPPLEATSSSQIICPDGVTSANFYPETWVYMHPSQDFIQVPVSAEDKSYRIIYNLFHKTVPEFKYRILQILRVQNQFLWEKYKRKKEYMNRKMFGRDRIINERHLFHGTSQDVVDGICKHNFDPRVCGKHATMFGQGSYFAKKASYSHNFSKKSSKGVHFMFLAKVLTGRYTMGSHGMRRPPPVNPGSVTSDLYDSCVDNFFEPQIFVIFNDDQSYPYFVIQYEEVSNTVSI
Assay: Enzymatic Biochemical Assay of PARP
Description: The specific scheme was as follows: the 1× histone mixture was added to a 96-well plate at 50 μL per well, and the plate was incubated overnight at 4° C. The next day, after the plate was washed with PBST, 200 μL of blocking buffer per well was added, and the plate was incubated for 90 min. After the plate was washed with PBST again, 5 μL of inhibitor, 20 μL of 1×PARP buffer and 25 μL of […] were added to each well, and the plate was incubated at room temperature for 30 min. After the plate was washed with PBST, 100 μL of Elisa ECL substrate A and B mixture was added to each well, chemiluminescence value was immediately read using a plate reader, and IC50 values were calculated.

C[C@@H](COCc1nn2c(c1Cl)CN(c1cnc(C(F)(F)F)cn1)CC2)Nc1cn[nH]c(=O)c1C(F)(F)F [US20240158406, Compound 14]
IC50: < 10 nM
